Test results as given in ChEMBL document CHEMBL1201862, “PubChem BioAssay data set” (2004).
The source made the active and inactive calls.

How the values were obtained:
[1] = test system: Vero; assay: viability of Vero cells under compound – cytotoxicity control for flavivirus capping enzyme inhibitors (AID 588742); type: functional; settings: Chlorocebus sabaeus
[2] = molecular target: T1, Protein RecA (Mycobacterium tuberculosis, UniProt P9WHJ3); assay: Fluorescence Cell-Free Homogeneous Dose Retest to Identify Inhibitors of RecA-Intein Splicing Activity. [Related pubchem assays (depositor defined):AID2097, AID2223, AID489010, AID492950]; type: functional
T1 sequence (P9WHJ3 whole entry): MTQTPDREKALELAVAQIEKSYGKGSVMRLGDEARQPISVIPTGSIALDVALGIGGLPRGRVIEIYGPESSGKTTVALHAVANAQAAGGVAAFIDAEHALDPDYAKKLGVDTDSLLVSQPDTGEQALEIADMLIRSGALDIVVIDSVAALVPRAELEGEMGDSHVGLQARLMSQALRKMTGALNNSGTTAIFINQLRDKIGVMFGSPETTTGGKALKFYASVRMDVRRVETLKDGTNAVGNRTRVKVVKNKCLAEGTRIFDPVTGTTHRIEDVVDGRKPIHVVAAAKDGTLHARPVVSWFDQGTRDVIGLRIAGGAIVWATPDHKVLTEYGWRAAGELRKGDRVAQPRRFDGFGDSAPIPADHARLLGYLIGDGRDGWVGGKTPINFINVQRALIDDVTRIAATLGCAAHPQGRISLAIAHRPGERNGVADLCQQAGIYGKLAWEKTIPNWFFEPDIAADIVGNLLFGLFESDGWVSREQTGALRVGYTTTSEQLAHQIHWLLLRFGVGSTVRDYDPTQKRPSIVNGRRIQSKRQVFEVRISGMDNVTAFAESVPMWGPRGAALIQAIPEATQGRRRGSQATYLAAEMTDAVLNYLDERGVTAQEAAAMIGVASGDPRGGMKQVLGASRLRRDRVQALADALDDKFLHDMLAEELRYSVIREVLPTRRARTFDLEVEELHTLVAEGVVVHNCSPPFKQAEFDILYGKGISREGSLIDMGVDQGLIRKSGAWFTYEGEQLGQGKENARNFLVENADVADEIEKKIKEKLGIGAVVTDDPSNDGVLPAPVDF

[3] = molecular target: T2, Heat shock factor protein 1 (Mus musculus, UniProt P38532); assay: enhancement of HSF1-driven luciferase signal – cell-based, NIH3T3, luminescence, dose retest, confirmation (AID 435004); type: functional;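 note: stress induced by proteasome inhibitor MG132 added 30 min after compound; luciferase reporter driven by HSF1 response element in NIH3T3 cells; actives raise luminescence as potentiators of the MG132 stress response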
T2 sequence (P38532 whole entry): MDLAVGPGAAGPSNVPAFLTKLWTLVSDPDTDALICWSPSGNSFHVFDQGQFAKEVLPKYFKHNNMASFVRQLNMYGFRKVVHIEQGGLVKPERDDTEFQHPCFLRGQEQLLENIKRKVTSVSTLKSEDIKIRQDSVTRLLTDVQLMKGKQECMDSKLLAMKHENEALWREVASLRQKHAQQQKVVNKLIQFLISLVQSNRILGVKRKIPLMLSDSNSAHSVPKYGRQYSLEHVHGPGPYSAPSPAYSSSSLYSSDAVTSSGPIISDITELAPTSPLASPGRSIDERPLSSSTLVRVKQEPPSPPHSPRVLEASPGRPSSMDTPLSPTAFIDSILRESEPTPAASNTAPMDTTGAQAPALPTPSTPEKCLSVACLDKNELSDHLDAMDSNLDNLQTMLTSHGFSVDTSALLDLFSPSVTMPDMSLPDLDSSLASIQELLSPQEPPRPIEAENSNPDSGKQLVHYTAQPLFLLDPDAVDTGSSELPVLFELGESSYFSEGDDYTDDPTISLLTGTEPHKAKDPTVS

[4] = molecular target: ATP-dependent molecular chaperone HSP82 (Candida albicans (strain WO-1) (Yeast), UniProt C4YTQ8); assay: steroid-induced GRE reporter decrease in yeast – S. cerevisiae, luminescence, Hsp90 inhibitor project, dose response (AID 2400); type: functional, cell-based;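 note: beta-galactosidase luminescence from glucocorticoid response element reporter as proxy for Hsp90 function; inhibitor potency where signal loss means Hsp90 inhibition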
[5] = fluconazole-exposed Candida albicans growth modulators – fluorescence, retest, confirmation (AID 2467); type: functional, cell-based
[6] = molecular target: T3, Replicative DNA helicase DnaB (Mycobacterium tuberculosis, UniProt P9WMR3); assay: DnaB intein splicing inhibitors, dose response, biochemical, cell-free fluorescence (AID 449749); type: functional
T3 sequence (P9WMR3 whole entry): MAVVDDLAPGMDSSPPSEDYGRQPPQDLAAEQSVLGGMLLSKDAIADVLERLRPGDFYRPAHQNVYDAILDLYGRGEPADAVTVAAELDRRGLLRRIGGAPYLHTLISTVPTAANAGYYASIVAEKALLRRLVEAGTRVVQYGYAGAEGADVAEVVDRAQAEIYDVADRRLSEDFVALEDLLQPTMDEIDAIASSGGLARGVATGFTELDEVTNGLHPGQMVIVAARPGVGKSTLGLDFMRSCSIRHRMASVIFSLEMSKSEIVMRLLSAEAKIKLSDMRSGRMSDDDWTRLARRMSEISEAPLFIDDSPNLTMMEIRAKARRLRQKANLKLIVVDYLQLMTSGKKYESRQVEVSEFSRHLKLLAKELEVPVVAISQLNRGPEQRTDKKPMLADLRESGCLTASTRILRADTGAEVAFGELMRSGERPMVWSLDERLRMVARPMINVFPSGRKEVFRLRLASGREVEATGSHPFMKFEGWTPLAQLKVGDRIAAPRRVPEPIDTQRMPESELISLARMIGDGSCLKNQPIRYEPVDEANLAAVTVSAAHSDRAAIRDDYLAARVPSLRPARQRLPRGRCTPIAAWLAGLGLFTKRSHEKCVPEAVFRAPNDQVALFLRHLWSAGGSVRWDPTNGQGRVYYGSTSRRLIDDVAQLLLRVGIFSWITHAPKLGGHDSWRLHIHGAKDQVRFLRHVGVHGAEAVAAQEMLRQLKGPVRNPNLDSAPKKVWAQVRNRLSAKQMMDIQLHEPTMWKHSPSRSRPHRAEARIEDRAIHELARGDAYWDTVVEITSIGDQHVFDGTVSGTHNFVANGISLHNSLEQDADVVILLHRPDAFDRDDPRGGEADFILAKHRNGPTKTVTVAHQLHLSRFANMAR

[7] = molecular target: T4, Sentrin-specific protease 8 (Homo sapiens, UniProt Q96LD8); type: functional;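 note: luminescence read-out of SENP8 inhibition, dose-response confirmation following an ultra-high-throughput screen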
T4 sequence (Q96LD8 whole entry): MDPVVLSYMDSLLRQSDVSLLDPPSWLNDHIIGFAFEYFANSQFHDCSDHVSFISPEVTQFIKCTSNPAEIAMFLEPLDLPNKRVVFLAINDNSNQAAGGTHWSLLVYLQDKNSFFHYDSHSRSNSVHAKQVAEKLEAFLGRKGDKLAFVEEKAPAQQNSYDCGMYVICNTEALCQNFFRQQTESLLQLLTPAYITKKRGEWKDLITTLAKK

[8] = test system: INS1; assay: INS-1E survival protection against cytokine death – cell-based, luminescence, retest, dose response (AID 449756); type: functional; settings: Rattus norvegicus;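 note: cell death triggered by IL-1 beta plus TNF-alpha plus IFN-gamma mixture; protective hits raise ATP signal compared with cytokine alone wells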
[9] = test system: Streptococcus; assay: GAS UMAA2166 growth inhibition – luminescence, BacTiterGlo, counter-screen for streptokinase expression inhibitor project, dose response (AID 1915); type: functional, organism-based;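 note: potency for reduction of bacterial viability or growth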
[10] = molecular target: Serine/threonine-protein phosphatase PP1-alpha catalytic subunit (Homo sapiens, UniProt P62136); assay: inhibition of protein phosphatase 1 activity – biochemical, fluorescence, dose response (AID 2394)
Serine/threonine-protein phosphatase PP1-alpha catalytic subunit, sequence (P62136 whole entry): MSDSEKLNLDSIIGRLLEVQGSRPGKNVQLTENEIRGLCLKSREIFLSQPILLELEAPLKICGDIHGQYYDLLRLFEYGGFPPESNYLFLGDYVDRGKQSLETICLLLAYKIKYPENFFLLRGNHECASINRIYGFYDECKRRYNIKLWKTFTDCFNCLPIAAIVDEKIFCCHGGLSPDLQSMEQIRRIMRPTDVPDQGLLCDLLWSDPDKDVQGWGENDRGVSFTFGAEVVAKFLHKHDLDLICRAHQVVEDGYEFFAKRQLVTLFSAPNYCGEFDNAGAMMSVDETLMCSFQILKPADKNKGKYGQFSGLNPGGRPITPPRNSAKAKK

ATP-dependent molecular chaperone HSP82, sequence (C4YTQ8 whole entry): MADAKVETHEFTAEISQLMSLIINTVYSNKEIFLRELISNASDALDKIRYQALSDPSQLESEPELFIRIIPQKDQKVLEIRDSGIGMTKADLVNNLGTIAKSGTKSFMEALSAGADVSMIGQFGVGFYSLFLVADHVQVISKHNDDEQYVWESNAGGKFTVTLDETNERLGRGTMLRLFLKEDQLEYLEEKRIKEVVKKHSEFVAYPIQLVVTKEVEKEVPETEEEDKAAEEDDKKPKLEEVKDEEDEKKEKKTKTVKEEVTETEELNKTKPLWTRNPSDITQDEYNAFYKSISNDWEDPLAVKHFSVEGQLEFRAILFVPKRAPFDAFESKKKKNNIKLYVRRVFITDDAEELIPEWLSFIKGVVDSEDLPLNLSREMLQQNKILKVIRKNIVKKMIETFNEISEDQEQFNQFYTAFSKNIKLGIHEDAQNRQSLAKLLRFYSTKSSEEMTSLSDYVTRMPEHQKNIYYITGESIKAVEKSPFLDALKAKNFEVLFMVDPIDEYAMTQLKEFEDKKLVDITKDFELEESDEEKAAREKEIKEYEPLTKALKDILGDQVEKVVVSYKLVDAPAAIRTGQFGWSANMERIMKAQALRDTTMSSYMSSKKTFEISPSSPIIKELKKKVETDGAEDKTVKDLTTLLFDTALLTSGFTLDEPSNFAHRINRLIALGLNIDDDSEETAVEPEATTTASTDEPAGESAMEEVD

| SMILES | CC50 [1] | EC50 [2] | EC50 [3] | EC50 [4] | EC50 [5] | AC50 [6] | IC50 [7] | AC50 [8] | EC50 [9] | IC50 [10] |
| --- | --- | --- | --- | --- | --- | --- | --- | --- | --- | --- |
| Cc1ccc(NC2=CC(=O)C(=O)c3ccccc32)cc1 | 11.4 µM (active) | 0.999 µM (active) | 7.04 µM (active) | 40.7 µM (active) | 0.451 µM (active) | 0.971 µM (active) | 21.6 µM (active) | 2.63 µM (active) | – | – |
| O=C(O)c1ccc(S(=O)(=O)/N=C2\C=C(Nc3ccccc3F)C(=O)c3ccccc32)cc1 | 26.4 µM (active) | 0.0663 µM (active) | > 260 µM (inconclusive) | – | – | 0.146 µM (active) | – | 2.61 µM (active) | 4.05 µM (active) | 15.5 µM (not active) |
